The values that follow come from publication PMC6783830 (Viruses, 2019).

Read-outs that look alike come from different tables or passages of the source. Some results are limits rather than exact numbers.

Data set [1] concerns VSV. The experiment in a line: microbe, parasite or virus in culture. As to conditions: Vesicular stomatitis virus, BHK-21, in Mesocricetus auratus, 24 h, read-out: % Inhibition Nuclear Condensation (Cell Imaging). The data set is classed as cell-based.
Data set [2] relates to VSV. The experiment in a line: microbe, parasite or virus in culture. Type of data set: cell-based. As to conditions: Vesicular stomatitis virus, BHK-21, in Mesocricetus auratus, 24 h, read-out: % Inhibition Metabolic Shut-down (CCK Assay).
Data set [3] has as its target VSV RNP (Vesicular stomatitis Indiana virus, UniProt P03523). The experiment in a line: biochemical. The data set is classed as biochemical. Particulars: for inhibition at 20 µM: read-out: % Inhibition mRNA Synthesis (In vitro Transcription).
The target of data set [4] is VSV RdRp complex (L and P proteins on N–RNA) (Vesicular stomatitis Indiana virus, UniProt P03523). Type of data set: biochemical.
For data set [5], the target named is VSV L protein (Vesicular stomatitis Indiana virus, UniProt P03523). Kind of data set: biochemical. The data set is classed as biochemical.
A short description of data set [6]: in vitro. As to conditions: human.
The subject of data set [7] is HeLa cells.
For data set [8], the system named is CHPV.
Data set [9] concerns CHPV. Kind of data set: microbe, parasite or virus in culture. As to conditions: Chandipura virus, BHK-21, in Mesocricetus auratus, 24 h, read-out: Anti-CHPV Activity IC50 (CHPV-induced metabolic shut-down).
For data set [10], the system named is HPIV-3.
In data set [11] the test system is VSV. Kind of data set: microbe, parasite or virus in culture. As to conditions: Vesicular stomatitis virus, HeLa, in Homo sapiens, 65 h, read-out: Anti-VSV Activity IC50 (VSV-induced metabolic shut-down).
The nature of data set [12]: in vitro. As to conditions: hamster.
For data set [13], the system named is VSV. Kind of data set: microbe, parasite or virus in culture. As to conditions: Vesicular stomatitis virus, BHK-21, in Mesocricetus auratus, 24 h, read-out: Anti-VSV Activity IC50 (VSV-induced metabolic shut-down).
Data set [14] relates to HPIV-3. Kind of data set: microbe, parasite or virus in culture. As to conditions: Human respirovirus 3, HeLa, 72 h, read-out: Anti-HPIV-3 activity IC50.
Data set [15] relates to RABV. The experiment in a line: microbe, parasite or virus in culture. As to conditions: Lyssavirus rabies, in mouse/rat NG108-15, 48 h, read-out: Anti-RABV activity IC50 (RABV gene expression, luciferase).
Data set [16] relates to HeLa cells. The source holds these as a separate data set.
For data set [17], the target named is CHPV RNP (Chandipura virus, UniProt P13179). The experiment in a line: biochemical.
For data set [18], the system named is RABV.
Data set [19] concerns NA cells.
The target of data set [20] is VSV L protein (PRNTase domain) (Vesicular stomatitis Indiana virus, UniProt P03523). Type of data set: biochemical. As to conditions: at 10 µM.
Data set [21] has as its system VSV.
The target of data set [22] is CHPV RdRp (L and P proteins) (Chandipura virus, UniProt P13179). The experiment in a line: biochemical. As to conditions: read-out: inhibition of CHPV AC synthesis.
In data set [23] the test system is BHK-21 cells. Particulars: at 100 µM.
For data set [24], the system named is VSV-AcGFP. Type of data set: cell-based, Vesicular stomatitis virus in BHK-21 cells (hamster). Particulars: 10 µM.
Data set [25] concerns VSV-AcGFP. Type of data set: cell-based, Vesicular stomatitis virus in BHK-21 cells (hamster). Particulars: 10 µM. This is another data set of the same source.
Data set [26] deals with VSV. The data set is classed as cell-based, Vesicular stomatitis virus in BHK-21 cells (hamster).
For data set [27], the target named is HPIV-3 RNP (Human parainfluenza 3 virus, UniProt P12577). The data set is classed as biochemical, Human parainfluenza virus 3. As to conditions: at 10 µM.

Sequence of VSV RNP (P03523 whole entry, looked up): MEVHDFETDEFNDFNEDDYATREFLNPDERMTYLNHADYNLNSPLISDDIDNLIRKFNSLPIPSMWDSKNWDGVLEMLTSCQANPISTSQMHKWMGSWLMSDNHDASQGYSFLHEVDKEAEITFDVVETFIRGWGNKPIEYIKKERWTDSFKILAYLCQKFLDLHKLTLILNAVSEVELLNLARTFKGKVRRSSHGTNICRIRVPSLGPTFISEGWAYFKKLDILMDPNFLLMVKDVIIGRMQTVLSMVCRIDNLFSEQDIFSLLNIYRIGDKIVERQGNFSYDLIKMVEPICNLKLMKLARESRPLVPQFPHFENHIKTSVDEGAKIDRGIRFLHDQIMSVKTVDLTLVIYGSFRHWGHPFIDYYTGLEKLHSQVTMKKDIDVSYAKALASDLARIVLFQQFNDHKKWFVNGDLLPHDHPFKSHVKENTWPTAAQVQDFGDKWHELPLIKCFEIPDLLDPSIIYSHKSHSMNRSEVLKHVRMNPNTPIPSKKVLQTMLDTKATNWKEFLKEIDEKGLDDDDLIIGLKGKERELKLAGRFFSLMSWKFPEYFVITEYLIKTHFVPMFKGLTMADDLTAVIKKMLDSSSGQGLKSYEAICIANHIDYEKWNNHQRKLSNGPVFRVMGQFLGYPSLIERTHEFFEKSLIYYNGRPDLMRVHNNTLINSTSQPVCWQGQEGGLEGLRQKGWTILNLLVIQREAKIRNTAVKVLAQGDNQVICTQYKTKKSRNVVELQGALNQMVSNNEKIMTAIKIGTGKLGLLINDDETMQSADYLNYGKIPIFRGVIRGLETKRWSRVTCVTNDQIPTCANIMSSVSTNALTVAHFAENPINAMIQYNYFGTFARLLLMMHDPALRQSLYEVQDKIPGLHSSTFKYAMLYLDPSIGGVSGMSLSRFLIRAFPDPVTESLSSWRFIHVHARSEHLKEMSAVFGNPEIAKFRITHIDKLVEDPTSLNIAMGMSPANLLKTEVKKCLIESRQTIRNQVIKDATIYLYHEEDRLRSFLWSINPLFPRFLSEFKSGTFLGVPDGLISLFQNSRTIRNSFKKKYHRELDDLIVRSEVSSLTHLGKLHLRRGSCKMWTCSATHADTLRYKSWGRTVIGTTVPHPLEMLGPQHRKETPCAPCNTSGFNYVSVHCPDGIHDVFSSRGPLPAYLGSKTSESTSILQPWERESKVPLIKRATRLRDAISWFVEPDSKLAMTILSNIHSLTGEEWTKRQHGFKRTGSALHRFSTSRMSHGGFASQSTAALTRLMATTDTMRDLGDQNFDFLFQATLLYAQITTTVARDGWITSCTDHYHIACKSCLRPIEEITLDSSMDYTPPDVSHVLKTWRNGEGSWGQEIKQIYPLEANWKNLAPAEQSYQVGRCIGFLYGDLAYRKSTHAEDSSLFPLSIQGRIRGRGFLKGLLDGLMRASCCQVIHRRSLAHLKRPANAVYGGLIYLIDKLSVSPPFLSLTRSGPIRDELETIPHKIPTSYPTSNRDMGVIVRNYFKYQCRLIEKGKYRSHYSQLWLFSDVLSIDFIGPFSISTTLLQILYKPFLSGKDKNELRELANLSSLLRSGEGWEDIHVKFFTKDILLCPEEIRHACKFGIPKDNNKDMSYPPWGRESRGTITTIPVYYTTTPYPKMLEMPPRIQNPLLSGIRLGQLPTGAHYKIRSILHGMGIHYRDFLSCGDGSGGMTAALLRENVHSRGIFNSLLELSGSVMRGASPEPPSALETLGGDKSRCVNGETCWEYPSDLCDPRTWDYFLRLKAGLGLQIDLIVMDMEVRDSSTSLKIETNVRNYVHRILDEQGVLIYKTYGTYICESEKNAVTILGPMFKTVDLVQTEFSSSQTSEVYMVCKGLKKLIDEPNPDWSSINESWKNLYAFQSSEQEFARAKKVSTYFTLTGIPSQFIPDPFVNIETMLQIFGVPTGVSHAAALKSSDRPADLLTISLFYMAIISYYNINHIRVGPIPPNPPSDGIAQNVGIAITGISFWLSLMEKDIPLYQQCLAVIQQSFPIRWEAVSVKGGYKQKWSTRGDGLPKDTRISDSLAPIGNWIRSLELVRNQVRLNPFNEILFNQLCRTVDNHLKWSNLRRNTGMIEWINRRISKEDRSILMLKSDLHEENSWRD
Sequence of VSV L protein (P03523 whole entry, looked up): as above

Consider `Cc1cc2c(cc1O)NC(=O)CC2c1ccc(Oc2ccccc2)cc1` (stereo not shown) [VPI G], for which the inhibition at 17 µM in data set [1] is 54%; in data set [2] it was 46%. Further, the inhibition at 20 µM in data set [3] was found to be 68%.

In the case of `COc1cc2c(cc1C1CC(=O)Nc3cc(O)c(C)cc31)CCC2` (stereo not shown) [VPI E], the inhibition at 17 µM came to 94% in [1] and 50% in [2]. Moreover, in data set [3], the inhibition at 20 µM worked out at 72%.

As for `O=C(O)CN(CCN(CC(=O)O)CC(=O)O)CC(=O)O` [EDTA, reference compound], in data set [4], the “synthesis of LeRNA1–18 (pulse)” value was “abolishes”.

Consider `COc1cc2c(cc1C1CC(=O)Nc3cc(O)c(C)cc31)OCCCO2` (stereo not shown) [VPI H], for which the inhibition at 17 µM in data set [1] came to 53%; in data set [2], 34%. For the same compound, the inhibition at 20 µM in data set [3] was 73%.

`Cc1cc2c(cc1O)NC(=O)CC2c1ccc(-c2cc[nH]n2)o1` (stereo not shown) [VPI F]: the inhibition at 17 µM in data set [1] was 69%; in data set [2] it was 48%. Besides, in [3] (at 20 µM), the “effect on VSV mRNA synthesis, in words” value was “weak inhibitory effect”. For the same compound, the inhibition at 20 µM in data set [3] was determined as 34%. For the same compound, the “AC synthesis with the VSV L and P proteins (Figure S4)” value in data set [5] (10 µM) is listed as “weakest”.

On to `NC(=O)c1ncn([C@@H]2O[C@H](CO)[C@@H](O)[C@H]2O)n1` [Ribavirin, reference compound], for which the CC50 in [6] is more than 100 µM; in data set [12] it was 86 ± 0.5 µM. The “Cytotoxicity CC50” value in data set [7] was > 1 0 0 µM. Moreover, in data set [8], the “Anti-CHPV Activity SI (CC50/IC50)” value is less than 1. Moreover, the IC50 in data set [9] was more than 100 µM; in data set [11] it was 15 ± 1 µM; in data set [13], more than 100 µM; in data set [14], 21 µM. For the same compound, the “Anti-HPIV-3 activity SI (CC50/IC50)” value in data set [10] is more than 5.

Turning to `COc1ccc(C2CC(=O)Nc3cc(O)c(C)cc32)cc1Cn1cccn1` (stereo not shown) [VPI A], the CC50 in [6] and in data set [12] was more than 100 µM each time. The “Cytotoxicity CC50” value in data set [7] and in data set [19] was > 1 0 0 µM in each case. Also, the IC50 in data set [15] amounted to 26 µM; in data set [17] it was 3.3 ± 0.4 µM; in data set [8] (read-out: Anti-CHPV Activity IC50 (CHPV-induced metabolic shut-down)) it was 7.9 ± 0.4 µM; in [9], 8 µM; in [21] (read-out: Anti-VSV Activity IC50 (VSV-induced metabolic shut-down)) it was 0.42 ± 0.02 µM; in [3] it was 0.81 ± 0.04 µM. In addition, the 50% inhibitory concentration (IC50) in data set [11] is 0.4 µM; in data set [13], 2 ± 0.1 µM. The inhibition at 17 µM in [1] was 98%; in [2], 105%. For the same compound, the “toxicity to HeLa cells” value in data set [16] is “less toxic”. Further, in [8], the “Anti-CHPV Activity SI (CC50/IC50)” value was more than 13. The “Anti-RABV activity SI (CC50/IC50)” value in data set [18] is reported as more than 4. Further, the “capping activity of the PRNTase domain in the VSV L protein” value in [20] is on record as “slightly reduced”. Besides, in data set [21], the “VSV-induced cell rounding and detachment” value is reported as “inhibited”. Besides, the inhibition at 1 µM in data set [22] (1 µM) was 77%; in [5] (1 µM, read-out: inhibition of AC synthesis with the VSV L protein alone), 85%. Further, the inhibition at 10 µM in [22] (10 µM) is 97%; in [5] (10 µM, read-out: inhibition of AC synthesis with the VSV L protein alone), 100%. Besides, the “antiviral effects against HPIV-3” value in data set [10] is recorded as “neither of the compounds showed any antiviral effects”. Further, in data set [23], the “cytotoxic effects on BHK-21 cells” value is “little or no cytotoxic effects”. In addition, in data set [4], the “synthesis of LeRNA1–18 (pulse)” value is listed as “inhibits”. Further, the “VSV LeRNA synthesis” value in [3] is on record as “represses”. Besides, in data set [3], the inhibition at 20 µM was 99%. Also, the “nuclear condensation and AcGFP expression in infected cells” value in [24] was “abrogate”. Besides, the “step of VSV infection inhibited (time-of-addition)” value in [25] is “inhibits VSV infection at an early post-entry step”. In [26], the “concentration that almost completely abolished VSV production” value is recorded as not below 12.5 µM. In addition, the “inhibition of in vitro mRNA synthesis of HPIV-3” value in [27] is recorded as “not”. In addition, the “AC synthesis with the VSV L and P proteins” value in data set [5] was “inhibit”. The “AC synthesis with the VSV L and P proteins (Figure S4)” value in data set [5] (10 µM) was “strongest”.

As to `Cc1cc2c(cc1O)NC(=O)CC2c1cc(C(C)(C)C)[nH]n1` (stereo not shown) [VPI B], the CC50 in data set [6] and in data set [12] was more than 100 µM each time. For the same compound, the “Cytotoxicity CC50” value in [7] and in data set [19] was > 1 0 0 µM throughout. The inhibition at 17 µM in data set [1] is 92%; in data set [2] it was 102%. The “toxicity to HeLa cells” value in [16] was “less toxic”. Moreover, the “Anti-CHPV Activity SI (CC50/IC50)” value in [8] is listed as more than 9. Besides, the “inhibitory effect on RABV gene expression” value in data set [18] was “little or no inhibitory effect”. The IC50 in data set [9] amounted to 11 ± 1 µM; in [11] it was 1 µM; in data set [13], 6 µM. In data set [21], the “VSV-induced cell rounding and detachment” value was “inhibited”. In data set [10], the “antiviral effects against HPIV-3” value is reported as “neither of the compounds showed any antiviral effects”. Also, the “cytotoxic effects on BHK-21 cells” value in [23] is on record as “little or no cytotoxic effects”. Further, in data set [3], the inhibition at 20 µM was 89%. Further, in data set [24], the “nuclear condensation and AcGFP expression in infected cells” value is “abrogate”. Further, the “concentration that almost completely abolished VSV production” value in data set [26] was not below 25 µM.

For the compound `Cc1cc2c(cc1O)NC(=O)CC2c1c[nH]nc1-c1ccc(F)cc1` (stereo not shown) [VPI C], the inhibition at 17 µM in data set [1] turned out to be 63%; in data set [2] it was 58%. The inhibition at 20 µM in data set [3] was determined as 72%.

On to `Cc1cc2c(cc1O)NC(=O)CC2c1cc2ccccc2n1C` (stereo not shown) [VPI D], for which the inhibition at 17 µM in data set [1] was found to be 57%; in data set [2], 55%. The inhibition at 20 µM in data set [3] came to 72%.

For orientation: inhibition means the change of the read-out against control, counted positive when it falls. As usually defined, the IC50 is the concentration that inhibits the measured activity by half.
